Experimental data published in ChEMBL document CHEMBL1131242, “6beta-Acetoxynortropane: a potent muscarinic agonist with apparent selectivity toward M2-receptors” (J Med Chem, 1998).

How the values were obtained:
[1] = molecular target: Muscarinic acetylcholine receptor M3 (Homo sapiens, UniProt P20309); assay: Inhibition of binding of [3H]quinuclidinyl benzilate to human Muscarinic acetylcholine receptor M3 in membranes of transfected CHO cells at 100 uM concentration; details: Membrane
[2] = molecular target: Muscarinic acetylcholine receptor M1 (Homo sapiens) (UniProt P11229); assay: Inhibition of binding of [3H]quinuclidinyl benzilate to human Muscarinic acetylcholine receptor M1 in membranes of transfected CHO cells at 300 uM concentration; details: Membrane
Muscarinic acetylcholine receptor M1 (Homo sapiens), sequence (P11229 whole entry, looked up): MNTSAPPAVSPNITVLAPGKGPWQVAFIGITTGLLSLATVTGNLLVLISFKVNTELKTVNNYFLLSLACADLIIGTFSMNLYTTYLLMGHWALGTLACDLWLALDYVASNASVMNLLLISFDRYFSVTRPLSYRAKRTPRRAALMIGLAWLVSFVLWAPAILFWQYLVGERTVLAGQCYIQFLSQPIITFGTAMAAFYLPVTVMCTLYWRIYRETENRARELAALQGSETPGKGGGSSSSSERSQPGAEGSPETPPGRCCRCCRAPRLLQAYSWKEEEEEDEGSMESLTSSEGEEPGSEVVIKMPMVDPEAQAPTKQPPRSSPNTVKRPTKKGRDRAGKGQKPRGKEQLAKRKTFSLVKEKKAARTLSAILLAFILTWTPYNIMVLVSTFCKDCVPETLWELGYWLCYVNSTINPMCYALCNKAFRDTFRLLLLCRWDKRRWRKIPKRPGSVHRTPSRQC

Muscarinic acetylcholine receptor M3, sequence (P20309 whole entry, looked up): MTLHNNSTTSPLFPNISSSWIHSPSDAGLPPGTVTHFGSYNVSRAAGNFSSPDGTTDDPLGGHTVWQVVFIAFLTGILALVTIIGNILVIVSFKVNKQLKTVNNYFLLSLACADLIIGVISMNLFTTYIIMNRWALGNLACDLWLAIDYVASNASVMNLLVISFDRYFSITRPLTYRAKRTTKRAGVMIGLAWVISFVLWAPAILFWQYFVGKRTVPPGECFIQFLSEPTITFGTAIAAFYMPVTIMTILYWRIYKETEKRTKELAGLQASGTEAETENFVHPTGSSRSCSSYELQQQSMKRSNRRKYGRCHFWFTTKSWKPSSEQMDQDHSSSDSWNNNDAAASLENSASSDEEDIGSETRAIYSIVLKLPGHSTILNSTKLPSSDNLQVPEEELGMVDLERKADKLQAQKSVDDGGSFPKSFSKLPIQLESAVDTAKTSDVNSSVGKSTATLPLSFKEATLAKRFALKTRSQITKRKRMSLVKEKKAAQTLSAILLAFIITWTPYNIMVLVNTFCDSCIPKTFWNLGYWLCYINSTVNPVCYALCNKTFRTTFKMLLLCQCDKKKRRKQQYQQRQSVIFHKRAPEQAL

Compound: CC(=O)OC(C)C[N+](C)(C)C (configuration not stated) [METHACHOLINE]
- inhibition [1]: 34%
- inhibition [2]: 8%
